Laboratory results from patent publication US9273075B2, “Prodrugs of 1,4-benzodiazepinone compounds” (BRISTOL-MYERS SQUIBB COMPANY, priority 2012, dated 2016).
Converted amounts (≈) assume the structure as drawn. Where two headings read alike, the source gives them in different places.

Legend:
[1] = High Throughput Metabolic Stability Panel, rat microsomes; conditions: control compound values (expected ranges), 10 minutes
[2] = High Throughput Metabolic Stability Panel, dog microsomes; conditions: control compound values (expected ranges), 10 minutes
[3] = High Throughput Metabolic Stability Panel, monkey microsomes; conditions: control compound values (expected ranges), 10 minutes
[4] = High Throughput Metabolic Stability Panel, mouse liver microsomes
[5] = test system: TALL1 Human T-cell acute lymphoblastic leukemia; experiment: Human tumor xenograft in mice: TALL1; type: in vivo; conditions: FIG. 1; dosed intravenously QD×3, weekly×3; Compound A 3 mg/kg; Example 12 1.5, 3, 6 mg/kg; active = TGI≧50%
[6] = Thermodynamic Equilibrium Aqueous Solubility Assay; type: physicochemical; conditions: thermodynamic from solid
Method: Standards Preparation: The calibration standard was prepared by accurately weighing 0.5-0.7 mg of sample in 5 ml of methanol. If the material was not fully soluble in methanol, other solvents such as DMSO or mixed solvents were used.
Test Sample Preparation: An excess amount of powder prodrug was equilibrated with 1 mL of buffer (50 mM potassium phosphate, pH 6.5 and 50 mM sodium acetate, pH 4.0) in a 2 mL glass vial. The solution was sonicated and vortexed for ˜30 seconds. The vials were shaken at 300 rpm at room temperature for 24 hrs. The exact incubation time for a specific prodrug was based on the prior aqueous stability data. If the compound was stable in the buffer up to 24 hrs, then the solubility was measured after 24 hrs, otherwise kinetic solubility data was reported. The final saturated solution was then transferred to a 1.5 mL Eppendorf tube and centrifuged for ˜2 min. at 10000 rpms. The supernatant from the saturated solution was transferred to a glass HPLC vial and the solubility was analyzed by HPLC using a four point calibration curve.

[7] = Solution Stability Assay; type: physicochemical
Method: Acetonitrile Stock Solution: Acetonitrile Stock Solution of the prodrug was prepared by dissolving 1.5-2.0 mg of weighted compound in 5.0 mL of acetonitrile in a 5 mL volumetric flask.
pH 6.5 Buffer Working Solution: A pH 6.5 Buffer Working Solution of drug was prepared by adding 1.5 mL of the Acetonitrile Stock Solution to 3.5 mL of stability buffer (50 mM potassium phosphate, pH 6.5) in a 10 mL vial, and mixing. Using a 3 mL syringe, ˜3 mL of solution was withdrawn and filtered using the Gelman 0.45 μm syringe filter into a clean 1.5 mL LC vial. This filtered solution will was used to evaluate the prodrug degradation throughout the course of the study. Target concentration: 90-120 μg/mL (70% Aqueous: 30% Acetonitrile)
pH 4.0 Acidic Working Solution: A pH 4.0 Working Solution of drug was prepared by adding 1.5 mL of the Acetonitrile Stock Solution to 3.5 mL of stability buffer (50 mM sodium acetate, pH 4.0) in a 10 mL vial and mixing. Using a 3 mL syringe, ˜3 mL of solution was withdrawn and filtered using the Gelman 0.45 μm syringe filter into a clean 1.5 mL LC vial. This filtered solution was used to evaluate the prodrug degradation throughout the course of the study. Target concentration: 90-120 μg/mL (70% Aqueous: 30% Acetonitrile)
Experimental Methods: Following the sample preparation procedure described above a single sample (n=1) was prepared for each pH condition. The samples were then placed in an HPLC autosampler maintained at 37° C. and samples were analyzed over a 24 h period. Prodrug remaining (%) was reported relative to the initial peak area (t=0 h). In cases where a conversion to parent half-life could be calculated, a t1/2 was generated. Confirmation of the conversion to parent from the prodrug was obtained by LCMS and HPLC analysis of the final timepoint samples.
Typical LC parameters are shown below: • HPLC System: HP1100 Series, Hewlett Packard., Heated autosampler • Analytical column: Synergi 4 u Hydro C18, 4.6 mm×5.0 cm, PHENOMENEX® • Column temperature: 40° C. • Autosampler temp: 37° C. • Flow rate: 1.0 mL/min • Injection Volume: 10 μL • Mobile Phase: A: Acetonitrile • B: 0.1% Phosphoric acid in water • Run Time: 14.0 minutes Typical LCMS parameters are shown below: • LC-MS System: Surveyor HPLC system, ThermoFinnigan LCQ Deca XP Max (Ion trap) • Analytical column: Synergi 4 u Hydro C18, 4.6 mm×5.0 cm, PHENOMENEX® • Column temperature: 40° C. • Autosampler temp: 22° C. • Flow rate: 1.0 mL/min • Injection Volume: 5 μL • Mobile Phase: A: 95% Acetonitrile/5% 20 mM Ammonium Acetate • B: 5% Acetonitrile/95% 20 mM Ammonium Acetate LCQ Parameters: • Sheath Flow Rate: 81.64 • Aux/Sweep Flow Rate: 19.01 • Current (uA): 10.89 • Voltage (kV): 5.00 • Capillary (C): 348.10 • Capillary Voltage (V): 30.44

[8] = potassium phosphate buffer, pH 6.5, aqueous buffer, read-out: Solubility (mg/mL) pH 6.5
[9] = sodium acetate buffer, pH 4, aqueous buffer, read-out: Solubility (mg/mL) pH 4.0
[10] = potassium phosphate buffer with 30% acetonitrile, pH 6.5, read-out: Stability (t1/2, h) pH 6.5 (converted)
[11] = sodium acetate buffer with 30% acetonitrile, pH 4, read-out: Stability (t1/2, h) pH 4.0 (converted)

## CCc1nn(CCCN2CCN(c3cccc(Cl)c3)CC2)c(=O)n1CCOc1ccccc1 [Nefazodone]
Control compound values (expected ranges), human microsomes, 10 minutes
  Average Percent Remaining ± SD, Human: 0.4 ± 0.4%
[1]
  Average Percent Remaining ± SD, Rat: 0.7 ± 0.6%
[2]
  Average Percent Remaining ± SD, Dog: 0.4 ± 0.4%
[3]
  Average Percent Remaining ± SD, Monkey: 0.6 ± 0.5%
[4]; control compound values (expected ranges), mouse microsomes, 10 minutes
  Average Percent Remaining ± SD, Mouse: 0.4 ± 0.3%

## NC(=O)[C@@H](CCC(F)(F)F)[C@@H](CCC(F)(F)F)C(=O)N[C@H]1N=C(c2ccccc2)c2ccccc2NC1=O [Compound B, (2R,3S)—N-((3S)-2-Oxo-5-phenyl-2,3-dihydro-1H-1,4-benzodiazepin-3-yl)-2,3-bis(3,3,3-trifluoropropyl)succinamide]
0.5 μM compound, human liver microsomes, ten-minute incubation, NADPH
  0.5 μM HLM (% Remaining): 88%
[4]; 0.5 μM compound, mouse liver microsomes, ten-minute incubation, NADPH
  0.5 μM MsLM (% Remaining): 86%

## CN1C(=O)[C@@H](NC(=O)[C@H](CCC(F)(F)F)[C@H](CCC(F)(F)F)C(=O)NSC[C@H](N)C(=O)O)N=C(c2ccccc2)c2ccccc21 [Example 12, S-(((2S,3R)-6,6,6-Trifluoro-3-(((3S)-1-methyl-2-oxo-5-phenyl-2,3-dihydro-1H-1,4-benzodiazepin-3-yl)carbamoyl)-2-(3,3,3-trifluoropropyl)hexanoyl)amino)-L-cysteine]
[5]
  in vivo efficacy against TALL1, activity as defined by the tumor growth inhibition (TGI): active
[6]; [8]
  solubility at 24 h: 0.63 mg/mL (≈ 932 µM)
[6]; [9]
  solubility at 24 h: 0.82 mg/mL (≈ 1210 µM)
[7]; [10]
  half-life: 251 h
[7]; [11]
  half-life: 376 h

## N[C@@H](CSNC(=O)[C@@H](CCC(F)(F)F)[C@@H](CCC(F)(F)F)C(=O)N[C@H]1N=C(c2ccccc2)c2ccccc2NC1=O)C(=O)O [Example 9, S-(((2S,3R)-6,6,6-Trifluoro-3-(((3S)-2-oxo-5-phenyl-2,3-dihydro-1H-1,4-benzodiazepin-3-yl)carbamoyl)-2-(3,3,3-trifluoropropyl)hexanoyl)amino)-L-cysteine]
[6]; [8]
  solubility at 24 h: 0.64 mg/mL (≈ 967 µM)
[6]; [9]
  solubility at 24 h: 0.75 mg/mL (≈ 1130 µM)
[7]; [10]
  half-life: 58 h
[7]; [11]
  half-life: 335 h

## Cc1cc(C)c(C(C)(C)CC(=O)OCN2C(=O)[C@@H](NC(=O)[C@H](CCC(F)(F)F)[C@H](CCC(F)(F)F)C(N)=O)N=C(c3ccccc3)c3ccccc32)c(OP(=O)(O)O)c1 [Example 3, (3-(((2R,3S)-3-Carbamoyl-6,6,6-trifluoro-2-(3,3,3-trifluoropropyl)hexanoyl)amino)-2-oxo-5-phenyl-2,3-dihydro-1H-1,4-benzodiazepin-1-yl)methyl 3-(2,4-dimethyl-6-(phosphonooxy)phenyl)-3-methylbutanoate]
[6]; [8]
  solubility at 24 h: > 0.52 mg/mL
[6]; [9]
  solubility at 24 h: > 0.28 mg/mL
[7]; [10]
  half-life: > 500 h
[7]; [11]
  half-life: > 500 h

## CN1C(=O)[C@@H](NC(=O)[C@H](CCC(F)(F)F)[C@H](CCC(F)(F)F)C(=O)NCN2CCC(N)CC2)N=C(c2ccccc2)c2ccccc21 [Example 17, (2S,3R)—N-((4-Amino-1-piperidinyl)methyl)-N′-((3S)-1-methyl-2-oxo-5-phenyl-2,3-dihydro-1H-1,4-benzodiazepin-3-yl)-2,3-bis(3,3,3-trifluoropropyl)succinamide]
[6]; [8]
  solubility at 24 h: > 1.9 mg/mL
[6]; [9]
  solubility at 24 h: 0.56 mg/mL (≈ 837 µM)
[7]; [10]
  half-life: 300 h
[7]; [11]
  half-life: 250 h

## COC(=O)[C@@H](N)CSNC(=O)[C@@H](CCC(F)(F)F)[C@@H](CCC(F)(F)F)C(=O)N[C@H]1N=C(c2ccccc2)c2ccccc2N(C)C1=O [Example 14, Methyl S-(((2S,3R)-6,6,6-trifluoro-3-(((3S)-1-methyl-2-oxo-5-phenyl-2,3-dihydro-1H-1,4-benzodiazepin-3-yl)carbamoyl)-2-(3,3,3-trifluoropropyl)hexanoyl)amino)-L-cysteinate]
[6]; [8]
  solubility at 24 h: 0.02 mg/mL (≈ 29 µM)
[6]; [9]
  solubility at 24 h: 0.42 mg/mL (≈ 609 µM)
[7]; [10]
  half-life: 44 h
[7]; [11]
  half-life: 73 h

## CC(C)[C@H](N)C(=O)OCN1C(=O)[C@@H](NC(=O)[C@H](CCC(F)(F)F)[C@H](CCC(F)(F)F)C(N)=O)N=C(c2ccccc2)c2ccccc21 [Example 6, ((3S)-3-(((2R,3S)-3-Carbamoyl-6,6,6-trifluoro-2-(3,3,3-trifluoropropyl)hexanoyl)amino)-2-oxo-5-phenyl-2,3-dihydro-1H-1,4-benzodiazepin-1-yl)methyl L-valinate]
[6]; [8]
  solubility at 24 h: 0.5 mg/mL (≈ 744 µM)
[6]; [9]
  solubility at 24 h: 0.3 mg/mL (≈ 447 µM)
[7]; [10]
  half-life: 41 h
[7]; [11]
  half-life: > 500 h

## CN(C)CCSNC(=O)[C@@H](CCC(F)(F)F)[C@@H](CCC(F)(F)F)C(=O)N[C@H]1N=C(c2ccccc2)c2ccccc2N(C)C1=O [Example 13, (2S,3R)—N-((2-(Dimethylamino)ethyl)sulfanyl)-N′-((3S)-1-methyl-2-oxo-5-phenyl-2,3-dihydro-1H-1,4-benzodiazepin-3-yl)-2,3-bis(3,3,3-trifluoropropyl)succinamide]
[6]; [8]
  solubility at 24 h: 0.94 mg/mL (≈ 1420 µM)
[6]; [9]
  solubility at 24 h: > 0.92 mg/mL
[7]; [10]
  half-life: 108 h
[7]; [11]
  half-life: 334 h

## CN1CCN(CNC(=O)[C@@H](CCC(F)(F)F)[C@@H](CCC(F)(F)F)C(=O)N[C@H]2N=C(c3ccccc3)c3ccccc3N(C)C2=O)CC1 [Example 15, (2R,3S)—N-((3S)-1-Methyl-2-oxo-5-phenyl-2,3-dihydro-1H-1,4-benzodiazepin-3-yl)-N′-((4-methyl-1-piperazinyl)methyl)-2,3-bis(3,3,3-trifluoropropyl)succinamide]
[6]; [8]
  solubility at 24 h: > 0.41 mg/mL
[6]; [9]
  solubility at 24 h: 0.27 mg/mL (≈ 404 µM)
[7]; [10]
  half-life: > 500 h
[7]; [11]
  half-life: > 500 h
